This is an account of results in patent US20230019491A1, “PYRIMIDINE TBK/IKKe INHIBITOR COMPOUNDS AND USES THEREOF” (Merck Patent GmbH, priority 2017, published 2023).

One assay concerns the target T1, TBK1 (Homo sapiens, UniProt Q9UHD2).
T1 sequence (Q9UHD2 1-729): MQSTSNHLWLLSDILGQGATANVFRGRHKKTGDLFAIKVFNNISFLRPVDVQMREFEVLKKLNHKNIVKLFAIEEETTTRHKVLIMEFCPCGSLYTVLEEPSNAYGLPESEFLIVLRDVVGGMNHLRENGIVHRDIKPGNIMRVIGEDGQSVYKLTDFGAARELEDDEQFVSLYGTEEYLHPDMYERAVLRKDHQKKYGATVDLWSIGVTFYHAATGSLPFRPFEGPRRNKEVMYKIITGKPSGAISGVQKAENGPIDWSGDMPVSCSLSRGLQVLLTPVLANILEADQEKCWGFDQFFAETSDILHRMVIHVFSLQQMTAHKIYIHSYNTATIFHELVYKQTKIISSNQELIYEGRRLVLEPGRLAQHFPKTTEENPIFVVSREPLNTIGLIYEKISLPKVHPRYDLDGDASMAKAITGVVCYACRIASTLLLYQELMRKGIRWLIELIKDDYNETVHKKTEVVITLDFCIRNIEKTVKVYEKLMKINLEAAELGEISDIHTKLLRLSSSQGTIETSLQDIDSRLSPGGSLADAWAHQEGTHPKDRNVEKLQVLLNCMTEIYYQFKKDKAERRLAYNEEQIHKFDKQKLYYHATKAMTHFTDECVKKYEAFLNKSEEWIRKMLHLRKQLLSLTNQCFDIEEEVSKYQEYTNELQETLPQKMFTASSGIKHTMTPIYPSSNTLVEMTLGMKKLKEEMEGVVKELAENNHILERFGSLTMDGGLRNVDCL
Put plainly: TBK biochemical assay. The following applies: 10 point 1:4 dose response, 30 uM top concentration, 90 min at 25° C., LabChip EZ Reader II; read-out: TBK1_IC50. An outline of the steps: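 Substrate and product were separated and quantified by microfluidic mobility-shift read (LabChip). 10 uM staurosporine served as the full-inhibition control, and the reference compound was tested from 1 uM final.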

A further assay deals with T2, IKKε (Homo sapiens, UniProt Q14164).
T2 sequence (Q14164 1-716): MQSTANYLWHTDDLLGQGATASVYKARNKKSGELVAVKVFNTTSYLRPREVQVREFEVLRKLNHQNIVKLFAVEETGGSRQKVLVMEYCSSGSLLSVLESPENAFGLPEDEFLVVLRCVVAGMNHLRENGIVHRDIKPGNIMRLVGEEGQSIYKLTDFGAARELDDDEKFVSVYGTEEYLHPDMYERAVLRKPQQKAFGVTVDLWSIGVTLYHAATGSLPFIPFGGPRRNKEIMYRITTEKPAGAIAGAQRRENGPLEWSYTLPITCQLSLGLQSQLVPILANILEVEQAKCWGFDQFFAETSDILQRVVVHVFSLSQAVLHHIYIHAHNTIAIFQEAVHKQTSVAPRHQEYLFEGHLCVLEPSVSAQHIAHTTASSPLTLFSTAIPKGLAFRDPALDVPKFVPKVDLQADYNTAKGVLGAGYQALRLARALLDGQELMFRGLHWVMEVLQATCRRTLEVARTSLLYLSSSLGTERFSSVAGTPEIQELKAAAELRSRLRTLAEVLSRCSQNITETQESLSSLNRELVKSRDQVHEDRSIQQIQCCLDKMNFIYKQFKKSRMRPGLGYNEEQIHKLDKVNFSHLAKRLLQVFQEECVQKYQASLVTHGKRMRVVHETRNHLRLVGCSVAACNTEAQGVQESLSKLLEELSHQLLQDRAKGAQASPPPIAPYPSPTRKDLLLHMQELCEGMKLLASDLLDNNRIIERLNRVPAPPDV
The assay is described as follows: IKKε biochemical assay. The following applies: 10 point 1:4 dose response, 30 uM top concentration, 90 min at 25° C., LabChip EZ Reader II; read-out: IKKε_IC50. In a few lines:
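Compounds in 1% DMSO final were incubated with IKKε enzyme and substrate at 25° C. for 90 min, then stopped. Substrate and product peaks were resolved by LabChip EZ Reader II mobility-shift read-out. Staurosporine at 10 uM final served as the full-inhibition control.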

`COc1nc(Nc2nccc(-c3ccc(OC4CCN(C(=O)C(C)O)CC4(F)F)c(C#N)c3)n2)ccc1C1CCN(C2COC2)CC1` (centres unmarked) [Example 329, 2-[[33-difluoro-1-(2-hydroxypropanoyl)piperidin-4-yl]oxy]-5-[2-([6-methoxy-5-[1-(oxetan-3-yl)piperidin-4-yl]pyridin-2-yl]amino)pyrimidin-4-yl]benzonitrile]: the IC50 on TBK1 and at IKKε was less than 100 nM in each case.
In the case of `COc1nc(Nc2nccc(-c3ccc(OC4CCN(C(=O)[C@@H](C)O)CC4(F)F)c(C#N)c3)n2)ccc1C1CCN(C2COC2)CC1` (stereo partly drawn) [Example 330, 2-([3,3-difluoro-1-[(2R)-2-hydroxypropanoyl]piperidin-4-yl]oxy)-5-[2-([6-methoxy-5-[1-(oxetan-3-yl)piperidin-4-yl]pyridin-2-yl]amino)pyrimidin-4-yl]benzonitrile], the IC50 on TBK1 and at IKKε was less than 100 nM throughout.
As to `COc1nc(Nc2nccc(-c3ccc(O[C@@H]4CCN(C(=O)[C@H](C)O)C[C@@H]4F)c(C#N)c3)n2)ccc1N1CCN(C2COC2)CC1` [Example 331, 2-[[(3S,4R)-3-fluoro-1-[(2S)-2-hydroxypropanoyl]piperidin-4-yl]oxy]-5-[2-([6-methoxy-5-[4-(oxetan-3-yl)piperazin-1-yl]pyridin-2-yl]amino)pyrimidin-4-yl]benzonitrile], the results for the IC50 at TBK1 and at IKKε were less than 100 nM and 100 to 1000 nM, respectively.
Taken in the same sequence, the figures for “tert-butyl 4-[2-cyano-5-methyl-4-[2-([4-[4-(oxetan-3-yl)piperazin-1-yl]phenyl]amino)pyrimidin-4-yl]phenoxy]-3,3-difluoropiperidine-1-carboxylate [Example 308]” were less than 100 nM and less than 100 nM.
